This is an account of results in patent publication EP0545103A1, “Insecticidal, acaricidal and molluscicidal 1-(substituted) thioalkylpyrroles” (priority 1991, dated 1993).

Holding throughout (format): in vivo
The test system of assay [1] is Heliothis virescens, egg, tobacco budworm. The assay is described as follows: Tobacco budworm egg test, dipped cotton leaf and eggs. Further details: key: 0: no effect; 10-25% kill; 26-35% kill; 36-45% kill; 46-55% kill; 56-65% kill; 66-75% kill; 76-85% kill; 86-99% kill; 9: 100% kill. As to conditions: mortality rating after 3 days. Put shortly:
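Compound dissolved at 10,000 ppm in 35% aqueous acetone, diluted with water. A cotton leaf and a cheesecloth square with roughly 50-100 eggs aged 6-30 h are each dipped for about 3 s, then combined and kept humid. Mortality counted after 3 days and rated on a scale.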

Assay [2] deals with Spodoptera eridania, 3rd instar larvae, southern armyworm. Kind of assay: Southern armyworm 3rd instar test, dipped limabean leaf. Conditions: for ARMYWORM Day 3: rating at 3 days; for ARMYWORM Day 5: rating at 5 days. The gist of the method:
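Compound dissolved in 35% acetone/water at 10,000 ppm stock, diluted with water. Sieva limabean leaves dipped 3 s, dried, and exposed to ten 3rd instar larvae on damp filter paper. Mortality, reduced feeding and molting interference scored at 3 and 5 days on a rating scale.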

In assay [3] the test system is Diabrotic undecimpunctata howardi, 3rd instar southern corn rootworm. The assay is described as follows: Southern corn rootworm soil test. Further details: key: 0: no effect; 10-25% kill; 26-35% kill; 36-45% kill; 46-55% kill; 56-65% kill; 66-75% kill; 76-85% kill; 86-99% kill; 9: 100% kill. Conditions: mortality rating after 6 days. Put shortly: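 Compound applied in acetone to talc at 1.25 and 0.25 mg active ingredient per jar (about 50 and 10 kg/ha), dried, then mixed with millet seed and moist soil. Ten 3rd instar larvae added per jar; mortality counted at 6 days, with missing larvae scored dead. Results rated on a scale.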

In assay [4] the test system is Tetranychus urticae (OP-resistant strain), 2-spotted spider mite. The assay is described as follows: 2-spotted spider mite test, dipped infested limabean plants. Further details: key: 0: no effect; 10-25% kill; 26-35% kill; 36-45% kill; 46-55% kill; 56-65% kill; 66-75% kill; 76-85% kill; 86-99% kill; 9: 100% kill. The method, then: (§1) Test solutions are prepared by dissolving the test compound in a 35% acetone in water mixture to give a concentration of 10,000 ppm. Subsequent dilutions are made with water as needed.
Tetranychus urticae (OP-resistant strain), 2-spotted spider mite
Sieva limabean plants with primary leaves expanded to 7-8 cm are selected and cut back to one plant per pot. A small piece is cut from an infested leaf taken from the main colony and placed on each leaf of the test plants. This is done about 2 hours before treatment to allow the mites to move over to the test plant and to lay eggs. The size of the cut, infested leaf is varied to obtain about 100 mites per leaf. At the time of test treatment, the piece of leaf used to transfer the mites is removed and discarded. The newly mite-infested plants are dipped in the test solution for 3 seconds with agitation and set in the hood to dry. After 2 days one leaf is removed and mortality counts are made. After 5 days, another leaf is removed and observations are made of mortality of the eggs and/or newly emerged nymphs.
(§2) All of the above tests are rated according to the rating scale shown below.

The test system of assay [5] is Aphis fabae, mixed instar, bean aphid. Kind of assay: Bean aphid spray test on nasturtium. Conditions: 100 ppm. Further details: key: 0: no effect; 10-25% kill; 26-35% kill; 36-45% kill; 46-55% kill; 56-65% kill; 66-75% kill; 76-85% kill; 86-99% kill; 9: 100% kill. Here is the method:
as §1
Aphis fabae, mixed instar, bean aphid
Pots containing single nasturtium plants (Tropaeolum sp.) about 5 cm tall are infested with about 100-200 aphids one day prior to treatment. Each pot is sprayed with the test solution for 2 revolutions of a 4 rpm turntable in a hood, using a #154 DeVilbiss atomizer. The spray tip is held about 15 cm from the plant and the spray directed so as to give complete coverage of the plants and the aphids. The sprayed pots are set on their sides on white enamel trays and mortality estimates are made after 2 days.
as §2

Assay [6] relates to Empoasca abrupta, adult, western potato leafhopper. Kind of assay: Western potato leafhopper contact test, dipped limabean leaf. Further details: key: 0: no effect; 10-25% kill; 26-35% kill; 36-45% kill; 46-55% kill; 56-65% kill; 66-75% kill; 76-85% kill; 86-99% kill; 9: 100% kill. Here is the method: as §1
Empoasca abrupta, adult, western potato leafhopper
A Sieva limabean leaf about 5 cm long is dipped in the test solution for 3 seconds with agitation and placed in a hood to dry. The treated leaf is placed in a 100 x 10 mm petri dish containing a moist filter paper and about 10 adult leafhoppers are added. After 2 days, mortality counts are made.
as §2

For assay [7] the test system is unchanged. Kind of assay: Western potato leafhopper systemic uptake test. Further details: key: 0: no effect; 10-25% kill; 26-35% kill; 36-45% kill; 46-55% kill; 56-65% kill; 66-75% kill; 76-85% kill; 86-99% kill; 9: 100% kill. As to conditions: 100 ppm. Here is the method: Empoasca abrupta, adult, western potato leafhopper Systemic Uptake
An emulsion containing 0.1 gm of the test material, 0.2 gm of Emulphor EL-620® emulsifier, 10 mL of acetone and 90 mL of water is prepared and diluted 10-fold with water to give a 100 ppm emulsion. Subsequent 10-fold dilutions are made with water as needed. Sieva limabean plants, with the primary leaves expanded to a length of 7-8 cm, are cut off at least 3 cm above the soil level to avoid contamination with soil bacteria which will cause decay of the stem during the test. The cut stem is placed in the test emulsion and wrapped with a bit of cotton to hold the stem off the bottom of the bottle and to limit evaporation. The treated stem is maintained for 3 days at 27°C to allow the test compound to be taken up into the plant. Following this, one leaf is removed from the plant and placed in a 100 x 10 mm petri dish containing a moist filter paper and about 10 adult leafhoppers as described above. Mortality counts are made after 2 days.
as §2

In assay [8] the test system is Spodoptera eridania, 3rd instar larvae, southern armyworm. The assay is described as follows: Southern armyworm systemic uptake (stem systemic) test. Further details: key: 0: no effect; 10-25% kill; 26-35% kill; 36-45% kill; 46-55% kill; 56-65% kill; 66-75% kill; 76-85% kill; 86-99% kill; 9: 100% kill. As to conditions: cut stem in emulsion 3 days.
For assay [9] the test system is unchanged. Kind of assay: Southern armyworm 7-day residual test. Conditions: R designates Residual: 7-day residual foliage, concentration not given. Put shortly:
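Compound was dissolved in 35% aqueous acetone (10,000 ppm stock) and diluted with water before treating lima bean leaves. The leaves were aged 7 days under high-intensity greenhouse lamps (14 h day). Third-instar Spodoptera eridania larvae were then assayed on the foliage and rated on a scale.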

Where [10] appears, read: 10 ppm, mortality rating after 2 days.
The mark [11] stands for this setting: 100 ppm, mortality rating after 2 days.
[12] abbreviates: 300 ppm, mortality rating after 2 days.
Where [13] appears, read: spray, mortality rating after 2 days.
The mark [14] stands for this setting: cut stem in emulsion 3 days, mortality rating after 2 days.

Take `CCOC(=S)SCn1c(-c2ccc(Cl)cc2)c(C#N)c(Cl)c1C(F)(F)F` [Example 23]: the “TOBACCO BUDWORM Egg” value in assay [1] (1000 ppm) worked out at 0. In addition, the “ARMYWORM Day 3” value in [2] (10 ppm), in [2] (100 ppm) and in assay [2] (1000 ppm) was 9 (100% kill) in each case. The “ARMYWORM Day 5” value in assay [2] (10 ppm), in [2] (100 ppm) and in [2] (1000 ppm) was 9 (100% kill) throughout. In addition, the “SOUTHERN CORN ROOTWORM” value in assay [3] (1 (ppm as headed)) is reported as 0. For the same compound, the “OP-RESISTANT MITES Adult” value in assay [4] (setting [10]), in [4] (setting [11]) and in [4] (setting [12]) was 9 (100% kill) each time. Moreover, the “OP-RESISTANT MITES Egg” value is listed as 9 (100% kill) in assay [4] (10 ppm, rating after 5 days); 9 (100% kill) in assay [4] (100 ppm, rating after 5 days); 0 in assay [4] (300 ppm, rating after 5 days). Besides, in [4] (300 ppm, rating after 5 days), the “OP-RESISTANT MITES Nymph” value was 9 (100% kill). In addition, in [5] (setting [13]), the APHIDS was 5 (56-65% kill). Also, the “LEAFHOPPER Contact” value in assay [6] (setting [10]) and in assay [6] (setting [11]) was 9 (100% kill) throughout. Besides, the “LEAFHOPPER Systemic” value in assay [7] (setting [14]) was determined as 0.

With `N#Cc1c(Cl)c(C(F)(F)F)n(CSC(=N)N)c1-c1ccc(Cl)cc1` [Example 3], the “TOBACCO BUDWORM Egg” value in assay [1] (100 ppm) is given as 0; in assay [1] (1000 ppm), 5 (56-65% kill). Moreover, the “ARMYWORM Day 5” value in [2] (10 ppm), in assay [2] (100 ppm) and in assay [2] (1000 ppm) was 9 (100% kill) in each case. Moreover, in [8], the “ARMYWORM Stem Sys” value was 0. Also, the “SOUTHERN CORN ROOTWORM” value in [3] (1 (ppm as headed)) is given as 0; in assay [3] (10 (ppm as headed)), 0; in [3] (50 (ppm as headed)) it was 9 (100% kill). Also, the “OP-RESISTANT MITES Nymph” value in assay [4] (10 ppm, rating after 5 days) was 0; in [4] (300 ppm, rating after 5 days), 9 (100% kill). The APHIDS in assay [5] (setting [13]) was 0. Moreover, the “LEAFHOPPER Contact” value in [6] (setting [10]) and in assay [6] (setting [11]) was 9 (100% kill) in each case. For the same compound, the “LEAFHOPPER Systemic” value in assay [7] (setting [14]) turned out to be 0.

`CN(C)C(=S)SCn1c(-c2ccc(Cl)c(Cl)c2)c(Br)c(C(F)(F)F)c1C(F)(F)F` [Example 33]: the “TOBACCO BUDWORM Egg” value in assay [1] (1000 ppm) is reported as 0. Moreover, the “ARMYWORM Day 3” value in [2] (10 ppm), in assay [2] (100 ppm) and in assay [2] (1000 ppm) was 9 (100% kill) throughout. Moreover, the “ARMYWORM Day 5” value in [2] (10 ppm), in assay [2] (100 ppm) and in [2] (1000 ppm) was 9 (100% kill) each time. Also, in [9] (rating at 3 days), the “ARMYWORM Day 3 R” value is listed as 9 (100% kill). Besides, the “ARMYWORM Day 5 R” value in assay [9] (rating at 5 days) is 9 (100% kill). Besides, the “ARMYWORM Stem Sys” value in [8] turned out to be 0. The “OP-RESISTANT MITES Adult” value is 0 in [4] (10 ppm, adult mites, rating scale 0-9); 0 in assay [4] (100 ppm, adult mites, rating scale 0-9); 7 (76-85% kill) in assay [4] (300 ppm, adult mites, rating scale 0-9). In addition, the “OP-RESISTANT MITES Egg” value was 0 in [4] (10 ppm, mite eggs, rating scale 0-9); 8 (86-99% kill) in [4] (100 ppm, mite eggs, rating scale 0-9); 0 in assay [4] (300 ppm, mite eggs, rating scale 0-9). In addition, the “OP-RESISTANT MITES Nymph” value in assay [4] (10 ppm, mite nymphs, rating scale 0-9) is listed as 0; in assay [4] (100 ppm, mite nymphs, rating scale 0-9) it was 0; in [4] (300 ppm, mite nymphs, rating scale 0-9) it was 0. In addition, the APHIDS in assay [5] (rating scale 0-9) was 0. For the same compound, the “LEAFHOPPER Contact” value in [6] (10 ppm, contact, rating scale 0-9) is 0; in assay [6] (100 ppm, contact, rating scale 0-9) it was 8 (86-99% kill). Further, the “LEAFHOPPER Systemic” value in [7] (systemic uptake, rating scale 0-9) stood at 0.

For `CC(C)OC(=S)SCn1c(-c2ccc(Cl)cc2)c(C#N)c(Cl)c1C(F)(F)F` [Example 22], the “TOBACCO BUDWORM Egg” value in [1] (1000 ppm) was 0. Also, the “ARMYWORM Day 3” value in assay [2] (10 ppm), in assay [2] (100 ppm) and in assay [2] (1000 ppm) was 9 (100% kill) each time. Further, the “ARMYWORM Day 5” value in assay [2] (10 ppm), in assay [2] (100 ppm) and in assay [2] (1000 ppm) was 9 (100% kill) in each case. Also, in assay [8], the “ARMYWORM Stem Sys” value is 0. The “OP-RESISTANT MITES Adult” value in assay [4] (setting [10]), in assay [4] (setting [11]) and in [4] (setting [12]) was 9 (100% kill) each time. The “OP-RESISTANT MITES Egg” value is reported as 9 (100% kill) in assay [4] (10 ppm, rating after 5 days); 9 (100% kill) in assay [4] (100 ppm, rating after 5 days); 0 in assay [4] (300 ppm, rating after 5 days). Further, the “OP-RESISTANT MITES Nymph” value in assay [4] (300 ppm, rating after 5 days) was 9 (100% kill). In [5] (setting [13]), the APHIDS is listed as 7 (76-85% kill). Besides, the “LEAFHOPPER Contact” value in assay [6] (setting [10]) and in assay [6] (setting [11]) was 9 (100% kill) each time. The “LEAFHOPPER Systemic” value in [7] (setting [14]) was 0.
